In the supplement of paper PMC10627819:

Experiments:
B. subtilis 168 [1] = assay: Bliss interaction score (quartile over a dose matrix) (fitness difference); higher = more antagonism (negative = synergy)
How it was run: (§1)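 The Bliss score was calculated by subtracting the expected fitness, the product of single-drug values, from the observed fitness. OD595 at entry into stationary phase, over the plate's robust no-drug mean and capped at 1, served as the fitness readout. Single-drug values were inferred from combination data, and scores are summarised by quartiles across technical, biological and donor/recipient replicates.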

S. aureus DSM 20231 = assay: as above
How it was run: as §1

S. aureus Newman = assay: as above
How it was run: as §1

S. pneumoniae D39V [2] = assay: as above
How it was run: as §1

B. subtilis 168 [3] = assay: fitness (endpoint OD595 vs no drug) (fraction); higher = more growth
How it was run: (§2)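 At 37 °C, bacteria in TSB, LB Lennox or CY were grown in 384-well plates from a starting OD595 of 0.01. OD595 was measured every 30 min for 14 h, with the first reading used as background. Fitness is the optical density at the switch to stationary phase as a fraction of the robust mean of no-drug control wells, capped at 1.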

S. pneumoniae D39V [4] = assay: as above
How it was run: as §2
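Wherever Bliss interaction score (quartile over a dose matrix) is given: first quartile when negative (synergy) and third quartile when positive (antagonism).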

C[C@H]1c2cccc(O)c2C(=O)C2=C(O)[C@]3(O)C(=O)C(C(N)=O)=C(O)[C@@H](N(C)C)[C@@H]3[C@@H](O)[C@@H]21 [Doxycycline] + COc1ccc(C[C@H](N)C(=O)N[C@H]2[C@@H](O)[C@H](n3cnc4c(N(C)C)ncnc43)O[C@@H]2CO)cc1 [Puromycin]
Bliss interaction score (B. subtilis 168 [1]): -0.0496 | Bliss interaction score (S. aureus DSM 20231): -0.0866 | Bliss interaction score (S. aureus Newman): -0.0507 | Bliss interaction score (S. pneumoniae D39V [2]): 0.0767 | fitness (B. subtilis 168 [3]; first compound 0.02 µg/mL, partner 0.39 µg/mL): 0.861 | fitness (B. subtilis 168 [3]; first compound 0.02 µg/mL, partner 0.78 µg/mL): 0.858 | fitness (B. subtilis 168 [3]; first compound 0.02 µg/mL, partner 1.56 µg/mL): 0.877 | fitness (B. subtilis 168 [3]; first compound 0.04 µg/mL, partner 0.39 µg/mL): 0.748 | fitness (B. subtilis 168 [3]; first compound 0.04 µg/mL, partner 0.78 µg/mL): 0.751 | fitness (B. subtilis 168 [3]; first compound 0.04 µg/mL, partner 1.56 µg/mL): 0.761 | fitness (B. subtilis 168 [3]; first compound 0.08 µg/mL, partner 0.39 µg/mL): 0.405 | fitness (S. pneumoniae D39V [4]; first compound 0.003875 µg/mL, partner 1 µg/mL, one replicate): ≥ 1 | fitness (S. pneumoniae D39V [4]; first compound 0.003875 µg/mL, partner 2 µg/mL, one replicate): 0.98 | fitness (S. pneumoniae D39V [4]; first compound 0.003875 µg/mL, partner 4 µg/mL, one replicate): 0.847 | fitness (S. pneumoniae D39V [4]; first compound 0.00775 µg/mL, partner 1 µg/mL, one replicate): ≥ 1 | fitness (S. pneumoniae D39V [4]; first compound 0.00775 µg/mL, partner 2 µg/mL, one replicate): 0.976 | fitness (S. pneumoniae D39V [4]; first compound 0.00775 µg/mL, partner 4 µg/mL, one replicate): 0.86 | fitness (S. pneumoniae D39V [4]; first compound 0.0155 µg/mL, partner 1 µg/mL): ≥ 1 | fitness (S. pneumoniae D39V [4]; first compound 0.0155 µg/mL, partner 2 µg/mL): 0.97 | fitness (S. pneumoniae D39V [4]; first compound 0.0155 µg/mL, partner 4 µg/mL): 0.834 | fitness (S. pneumoniae D39V [4]; first compound 0.031 µg/mL, partner 1 µg/mL): 0.857 | fitness (S. pneumoniae D39V [4]; first compound 0.031 µg/mL, partner 2 µg/mL): 0.836 | fitness (S. pneumoniae D39V [4]; first compound 0.031 µg/mL, partner 4 µg/mL): 0.73 | fitness (S. pneumoniae D39V [4]; first compound 0.062 µg/mL, partner 1 µg/mL): 0.847 | fitness (S. pneumoniae D39V [4]; first compound 0.062 µg/mL, partner 2 µg/mL): 0.786 | fitness (S. pneumoniae D39V [4]; first compound 0.062 µg/mL, partner 4 µg/mL): 0.637

C[C@@H]1O[C@@H]1P(=O)(O)O [Fosfomycin] + CCC(C)C1C(=O)NC(=C)C(=O)NC(C(=O)NC(CSCC(C(=O)N1)NC(=O)/C(=C/C)/NC(=O)C(C(C)CC)N)C(=O)NC2C(SCC(NC(=O)CNC(=O)C3CCCN3C2=O)C(=O)NC(CCCCN)C(=O)NC4C(SCC(NC(=O)CNC(=O)C(NC(=O)C(NC(=O)C(NC(=O)CNC4=O)C)CC(C)C)CCSC)C(=O)NC(CC(=O)N)C(=O)NC(CCSC)C(=O)NC(CCCCN)C(=O)NC5C(SCC6C(=O)NC(C(=O)NC(CSC(C(C(=O)N6)NC(=O)C(NC5=O)C)C)C(=O)NC(CO)C(=O)NC(C(C)CC)C(=O)NC(CC7=CN=CN7)C(=O)NC(C(C)C)C(=O)NC(=C)C(=O)NC(CCCCN)C(=O)O)CC8=CN=CN8)C)C)C)CC(C)C [Nisin]
Bliss interaction score (B. subtilis 168 [1]; main component drawn): -0.0482 | Bliss interaction score (S. aureus DSM 20231; main component drawn): 0.0654 | Bliss interaction score (S. aureus Newman; main component drawn): -0.0541 | Bliss interaction score (S. pneumoniae D39V [2]; main component drawn): -0.0374 | fitness (B. subtilis 168 [3]; first compound 1.562 µg/mL, partner 0.5 µg/mL, main component drawn): 0.712 | fitness (B. subtilis 168 [3]; first compound 1.562 µg/mL, partner 1 µg/mL, main component drawn): 0.609 | fitness (B. subtilis 168 [3]; first compound 1.562 µg/mL, partner 1.25 µg/mL, one replicate, main component drawn): 0.687 | fitness (B. subtilis 168 [3]; first compound 1.562 µg/mL, partner 1.6 µg/mL, one replicate, main component drawn): 0.577 | fitness (B. subtilis 168 [3]; first compound 1.562 µg/mL, partner 2 µg/mL, main component drawn): 0.45 | fitness (B. subtilis 168 [3]; first compound 1.562 µg/mL, partner 2.5 µg/mL, one replicate, main component drawn): 0.527 | fitness (B. subtilis 168 [3]; first compound 1.562 µg/mL, partner 3.2 µg/mL, one replicate, main component drawn): 0.0483 | fitness (B. subtilis 168 [3]; first compound 1.562 µg/mL, partner 4 µg/mL, one replicate, main component drawn): 0.0272 | fitness (B. subtilis 168 [3]; first compound 1.562 µg/mL, partner 5 µg/mL, one replicate, main component drawn): 0.0426 | fitness (B. subtilis 168 [3]; first compound 1.562 µg/mL, partner 6.4 µg/mL, one replicate, main component drawn): 0.0336 | fitness (B. subtilis 168 [3]; first compound 1.562 µg/mL, partner 8 µg/mL, one replicate, main component drawn): 0.0224 | fitness (B. subtilis 168 [3]; first compound 1.562 µg/mL, partner 16 µg/mL, one replicate, main component drawn): 0.0164 | fitness (B. subtilis 168 [3]; first compound 3.124 µg/mL, partner 0.5 µg/mL, main component drawn): 0.59 | fitness (B. subtilis 168 [3]; first compound 3.124 µg/mL, partner 1 µg/mL, main component drawn): 0.542 | fitness (B. subtilis 168 [3]; first compound 3.124 µg/mL, partner 1.25 µg/mL, one replicate, main component drawn): 0.613 | fitness (B. subtilis 168 [3]; first compound 3.124 µg/mL, partner 1.6 µg/mL, one replicate, main component drawn): 0.469 | fitness (B. subtilis 168 [3]; first compound 3.124 µg/mL, partner 2 µg/mL, main component drawn): 0.368 | fitness (B. subtilis 168 [3]; first compound 3.124 µg/mL, partner 2.5 µg/mL, one replicate, main component drawn): 0.303 | fitness (B. subtilis 168 [3]; first compound 3.124 µg/mL, partner 3.2 µg/mL, one replicate, main component drawn): 0.024 | fitness (B. subtilis 168 [3]; first compound 3.124 µg/mL, partner 4 µg/mL, one replicate, main component drawn): 0.0425 | fitness (B. subtilis 168 [3]; first compound 3.124 µg/mL, partner 5 µg/mL, one replicate, main component drawn): 0.0431 | fitness (B. subtilis 168 [3]; first compound 3.124 µg/mL, partner 6.4 µg/mL, one replicate, main component drawn): 0.0247 | fitness (B. subtilis 168 [3]; first compound 3.124 µg/mL, partner 8 µg/mL, one replicate, main component drawn): 0.0352 | fitness (B. subtilis 168 [3]; first compound 3.124 µg/mL, partner 16 µg/mL, one replicate, main component drawn): 0.0164 | fitness (B. subtilis 168 [3]; first compound 6.248 µg/mL, partner 0.5 µg/mL, main component drawn): 0.463 | fitness (B. subtilis 168 [3]; first compound 6.248 µg/mL, partner 1 µg/mL, main component drawn): 0.397 | fitness (B. subtilis 168 [3]; first compound 6.248 µg/mL, partner 1.25 µg/mL, one replicate, main component drawn): 0.513 | fitness (B. subtilis 168 [3]; first compound 6.248 µg/mL, partner 1.6 µg/mL, one replicate, main component drawn): 0.298 | fitness (B. subtilis 168 [3]; first compound 6.248 µg/mL, partner 2 µg/mL, main component drawn): 0.285 | fitness (B. subtilis 168 [3]; first compound 6.248 µg/mL, partner 2.5 µg/mL, one replicate, main component drawn): 0.127 | fitness (B. subtilis 168 [3]; first compound 6.248 µg/mL, partner 3.2 µg/mL, one replicate, main component drawn): 0.0136 | fitness (B. subtilis 168 [3]; first compound 6.248 µg/mL, partner 4 µg/mL, one replicate, main component drawn): 0.0038 | fitness (B. subtilis 168 [3]; first compound 6.248 µg/mL, partner 5 µg/mL, one replicate, main component drawn): 0.0232 | fitness (B. subtilis 168 [3]; first compound 6.248 µg/mL, partner 6.4 µg/mL, one replicate, main component drawn): 0.0329 | fitness (B. subtilis 168 [3]; first compound 6.248 µg/mL, partner 8 µg/mL, one replicate, main component drawn): 0.007 | fitness (B. subtilis 168 [3]; first compound 6.248 µg/mL, partner 16 µg/mL, one replicate, main component drawn): 0.0049 | fitness (S. pneumoniae D39V [4]; first compound 1.25 µg/mL, partner 0.4275 µg/mL, main component drawn): ≥ 1 | fitness (S. pneumoniae D39V [4]; first compound 1.25 µg/mL, partner 0.855 µg/mL, main component drawn): ≥ 1 | fitness (S. pneumoniae D39V [4]; first compound 1.25 µg/mL, partner 1.6 µg/mL, main component drawn): 0.0178 | fitness (S. pneumoniae D39V [4]; first compound 1.25 µg/mL, partner 1.71 µg/mL, main component drawn): 0.0788 | fitness (S. pneumoniae D39V [4]; first compound 1.25 µg/mL, partner 3.2 µg/mL, main component drawn): 0.0247 | fitness (S. pneumoniae D39V [4]; first compound 1.25 µg/mL, partner 6.4 µg/mL, main component drawn): 0.0308 | fitness (S. pneumoniae D39V [4]; first compound 2.5 µg/mL, partner 0.4275 µg/mL, main component drawn): 0.942 | fitness (S. pneumoniae D39V [4]; first compound 2.5 µg/mL, partner 0.855 µg/mL, main component drawn): 0.998 | fitness (S. pneumoniae D39V [4]; first compound 2.5 µg/mL, partner 1.6 µg/mL, main component drawn): 0.0062 | fitness (S. pneumoniae D39V [4]; first compound 2.5 µg/mL, partner 1.71 µg/mL, main component drawn): 0.0945 | fitness (S. pneumoniae D39V [4]; first compound 2.5 µg/mL, partner 3.2 µg/mL, main component drawn): 0.0256 | fitness (S. pneumoniae D39V [4]; first compound 2.5 µg/mL, partner 6.4 µg/mL, main component drawn): 0.0213 | fitness (S. pneumoniae D39V [4]; first compound 5 µg/mL, partner 0.4275 µg/mL, main component drawn): 0.852 | fitness (S. pneumoniae D39V [4]; first compound 5 µg/mL, partner 0.855 µg/mL, main component drawn): 0.889 | fitness (S. pneumoniae D39V [4]; first compound 5 µg/mL, partner 1.6 µg/mL, main component drawn): 0.0119 | fitness (S. pneumoniae D39V [4]; first compound 5 µg/mL, partner 1.71 µg/mL, main component drawn): 0.111 | fitness (S. pneumoniae D39V [4]; first compound 5 µg/mL, partner 3.2 µg/mL, main component drawn): 0.0102 | fitness (S. pneumoniae D39V [4]; first compound 5 µg/mL, partner 6.4 µg/mL, main component drawn): 0.0062
